Here are results for 25 compounds from US20210128566A1, “NOVEL FUNCTIONALIZED PURINE-2,6-DIONES AND THEIR USE IN MEDICINE” (THOMAS HELLEDAYS STIFTELSE FÖR MEDICINSK FORSKNING, priority 2017, published 2021).

The test has as its target recombinant human NUDT5 (Homo sapiens, UniProt Q9UKK9). The test can be described thus: NUDT5 inhibitor activity by malachite green reporter assay. The test is classed as biochemical. The following applies: 6 nM NUDT5, 50 μM ADP-Ribose, 15 minutes at room temperature. How it is done:
NUDT5 inhibitors were evaluated using a coupled enzymatic assay with detection of inorganic phosphate (Pi) using the malachite green assay. Following enzymatic hydrolysis of ADP-Ribose (Sigma-Aldrich A0572) by NUDT5, to yield AMP and ribose-5-phosphate, the latter product is continuously processed by a significant excess of alkaline phosphatase (Sigma-Aldrich, P0114). Formation of Pi is quantified based on the green complex (that absorbs at 630 nm) formed between malachite green and molybdate according to published procedure (Baykov, A. A., Evtushenko, O. A. and Avaeva, S. M., Anal Biochem, 171, 266-270 (1988)). Assay buffer consisted of 10 mM Tris-acetate at pH 8.0, 40 mM sodium chloride, 10 mM magnesium acetate, 0.005% Tween-20 and 1 mM dithiothreitol (DTT). The final conditions consisted of 6 nM recombinant human NUDT5, 50 μM ADP-Ribose and 10 U/ml of calf intestine alkaline phosphatase. The plates with compounds, enzymes and substrate were incubated at room temperature for 15 minutes, after which the reaction was terminated and the signal developed by the addition of the malachite green reagent using a MultiDrop (Thermo Scientific). Following vigorous shaking on plate shakers for a minimum of eight minutes the absorbance was read in a microplate reader (HidexSense) using a filter at 630 nm and a read time of 0.1 s per well. Inhibitors were used in dilutions from 100 μM to 1.7 nM in 3-fold dilution steps. Experiments were run in duplicate and confirmed in two independent experiments. IC50 values were determined by curve fitting using ExcelFit.

For the compound `COc1cc(-c2nnc(Cn3c(NCCC(N)=O)nc4c3c(=O)n(C)c(=O)n4C)o2)ccc1C` [Example 132, 3-[(7-{[5-(3-methoxy-4-methylphenyl)-1,3,4-oxadiazol-2-yl]methyl}-1,3-dimethyl-2,6-dioxo-2,3,6,7-tetrahydro-1H-purin-8-yl)amino]propanamide], where the note is “Table 4”, the IC50 turned out to be 157 nM.
As for `Cn1c(=O)c2c(nc(N3CC(NC(=O)OC(C)(C)C)C3)n2Cc2nnc(-c3ccc(Cl)c(Cl)c3)o2)n(C)c1=O` [Example 26, tert-butyl N-[1-(7-{[5-(3,4-dichlorophenyl)-1,3,4-oxadiazol-2-yl]methyl}-1,3-dimethyl-2,6-dioxo-2,3,6,7-tetrahydro-1H-purin-8-yl)azetidin-3-yl]carbamate], the IC50 (Table 3) amounted to 324 nM.
The same measure, in the same setting: the same measure for `Cn1c(=O)c2c(nc(N3CCOCC3)n2Cc2nnc(-c3ccc(Cl)c(Cl)c3)o2)n(C)c1=O` [Example 13, 7-{[5-(3,4-dichlorophenyl)-1,3,4-oxadiazol-2-yl]methyl}-1,3-dimethyl-8-(morpholin-4-yl)-2,3,6,7-tetrahydro-1H-purine-2,6-dione]: 759 nM.
Regarding `Cn1c(=O)c2c(nc(N3CCN(C(=O)OC(C)(C)C)CC3)n2Cc2nnc(-c3ccc([N+](=O)[O-])cc3)o2)n(C)c1=O` [Example 100, tert-butyl 4-(1,3-dimethyl-7-{[5-(4-nitrophenyl)-1,3,4-oxadiazol-2-yl]methyl}-2,6-dioxo-2,3,6,7-tetrahydro-1H-purin-8-yl)piperazine-1-carboxylate], the IC50 (Table 4) turned out to be 9440 nM.
The same measure, in the same setting: the figure for `Cn1c(=O)c2c(nc(N3CCC(CNC(=O)OC(C)(C)C)CC3)n2Cc2nnc(-c3ccc(Cl)c(Cl)c3)o2)n(C)c1=O` [Example 65, tert-butyl N-{[1-(7-{[5-(3,4-dichlorophenyl)-1,3,4-oxadiazol-2-yl]methyl}-1,3-dimethyl-2,6-dioxo-2,3,6,7-tetrahydro-1H-purin-8-yl)piperidin-4-yl]methyl}carbamate] is 33.8 nM.
Turning to `Cn1c(=O)c2c(nc(N3CC4(COC4)C3)n2Cc2nnc(-c3ccc(Cl)c(Cl)c3)o2)n(C)c1=O` [Example 12, 7-{[5-(3,4-dichlorophenyl)-1,3,4-oxadiazol-2-yl]methyl}-1,3-dimethyl-8-{2-oxa-6-azaspiro[3.3]heptan-6-yl}-2,3,6,7-tetrahydro-1H-purine-2,6-dione], where the note is “Table 3”, the half-inhibitory concentration (IC50) was 42.5 nM.
On the same count and under the same terms, the same measure for `C[C@@H]1CN(c2nc3c(c(=O)n(C)c(=O)n3C)n2Cc2nnc(-c3ccc(Cl)c(Cl)c3)o2)CCN1` [Example 47, 7-{[5-(3,4-dichlorophenyl)-1,3,4-oxadiazol-2-yl]methyl}-1,3-dimethyl-8-[(3R)-3-methylpiperazin-1-yl]-2,3,6,7-tetrahydro-1H-purine-2,6-dione]: 11.9 nM; for `CC1CCN(c2nc3c(c(=O)n(C)c(=O)n3C)n2Cc2nnc(-c3ccc(Cl)c(Cl)c3)o2)CC1` [Example 10, 7-{[5-(3,4-dichlorophenyl)-1,3,4-oxadiazol-2-yl]methyl}-1,3-dimethyl-8-(4-methylpiperidin-1-yl)-2,3,6,7-tetrahydro-1H-purine-2,6-dione]: 22.9 nM; for `Cc1nc2c(c(=O)n(C)c(=O)n2C)n1Cc1nnc(-c2ccc(Cl)c(Cl)c2)o1` [Example 60, 7-{[5-(3,4-dichlorophenyl)-1,3,4-oxadiazol-2-yl]methyl}-1,3,8-trimethyl-2,3,6,7-tetrahydro-1H-purine-2,6-dione]: 28.4 nM.
Same read-out and setting: the figure for `Cn1c(=O)c2c(nc(N3CCCCC3)n2Cc2nnc(-c3ccc(Cl)c(Cl)c3)o2)n(C)c1=O` [Example 9, 7-{[5-(3,4-dichlorophenyl)-1,3,4-oxadiazol-2-yl]methyl}-1,3-dimethyl-8-(piperidin-1-yl)-2,3,6,7-tetrahydro-1H-purine-2,6-dione] is 15 nM; for `COc1nc2c(c(=O)n(C)c(=O)n2C)n1Cc1nnc(-c2cccc(C)c2)o1` [Example 52, 8-methoxy-1,3-dimethyl-7-{[5-(3-methylphenyl)-1,3,4-oxadiazol-2-yl]methyl}-2,3,6,7-tetrahydro-1H-purine-2,6-dione] it is 378 nM; for `CC(=O)N1CCN(c2nc3c(c(=O)n(C)c(=O)n3C)n2Cc2nnc(-c3ccc(Cl)c(Cl)c3)o2)CC1` [Example 32, 8-(4-acetylpiperazin-1-yl)-7-{[5-(3,4-dichlorophenyl)-1,3,4-oxadiazol-2-yl]methyl}-1,3-dimethyl-2,3,6,7-tetrahydro-1H-purine-2,6-dione] it is 76.7 nM.
The same measure, in the same setting: the figure for `Cc1cccc(-c2nnc(Cn3c(N4CCN(CCO)CC4)nc4c3c(=O)n(C)c(=O)n4C)o2)c1` [Example 56, 8-[4-(2-hydroxyethyl)piperazin-1-yl]-1,3-dimethyl-7-{[5-(3-methylphenyl)-1,3,4-oxadiazol-2-yl]methyl}-2,3,6,7-tetrahydro-1H-purine-2,6-dione] is 922 nM; for `Cn1c(=O)c2c(nc(N3CCC4(CC3)NC(=O)NC4=O)n2Cc2nnc(-c3ccc(Cl)c(Cl)c3)o2)n(C)c1=O` [Example 22, 8-(7-{[5-(3,4-dichlorophenyl)-1,3,4-oxadiazol-2-yl]methyl}-1,3-dimethyl-2,6-dioxo-2,3,6,7-tetrahydro-1H-purin-8-yl)-1,3,8-triazaspiro[4.5]decane-2,4-dione] it is 35.1 nM.
For `COc1cc(-c2nnc(Cn3c(N4CCC(N(C)C)CC4)nc4c3c(=O)n(C)c(=O)n4C)o2)ccc1C` [Example 126, 8-[4-(dimethylamino)piperidin-1-yl]-7-{[5-(3-methoxy-4-methylphenyl)-1,3,4-oxadiazol-2-yl]methyl}-1,3-dimethyl-2,3,6,7-tetrahydro-1H-purine-2,6-dione], the IC50 (Table 4) was found to be 39.1 nM.
On to `Cn1c(=O)c2c(nc(N3CCNCC3)n2Cc2nnc(-c3ccccc3)o2)n(C)c1=O` [Example 107, 1,3-dimethyl-7-[(5-phenyl-1,3,4-oxadiazol-2-yl)methyl]-8-(piperazin-1-yl)-2,3,6,7-tetrahydro-1H-purine-2,6-dione], for which, where the note is “Table 4”, the IC50 worked out at 212 nM.
The same measure, in the same setting: the same measure for `COc1ccc(-c2nnc(Cn3c(Cl)nc4c3c(=O)n(C)c(=O)n4C)o2)cc1Cl` [Example 99, 8-chloro-7-{[5-(3-chloro-4-methoxyphenyl)-1,3,4-oxadiazol-2-yl]methyl}-1,3-dimethyl-2,3,6,7-tetrahydro-1H-purine-2,6-dione]: 73 nM.
For the compound `C=CCN(CC=C)c1nc2c(c(=O)n(C)c(=O)n2C)n1Cc1nnc(-c2ccc(Cl)c(Cl)c2)o1` [Example 8, 8-[bis(prop-2-en-1-yl)amino]-7-{[5-(3,4-dichlorophenyl)-1,3,4-oxadiazol-2-yl]methyl}-1,3-dimethyl-2,3,6,7-tetrahydro-1H-purine-2,6-dione], the IC50 (Table 3) is 162 nM.
Consider `Cc1ccc(-c2nnc(Cn3c(N4CCNCC4)nc4c3c(=O)n(C)c(=O)n4C)o2)cn1` [Example 125, 1,3-dimethyl-7-{[5-(6-methylpyridin-3-yl)-1,3,4-oxadiazol-2-yl]methyl}-8-(piperazin-1-yl)-2,3,6,7-tetrahydro-1H-purine-2,6-dione], for which the IC50 (Table 4) stood at 216 nM.
As for `Cn1c(=O)c2c(nc(N3CCC(CCO)CC3)n2Cc2nnc(-c3ccc(Cl)c(Cl)c3)o2)n(C)c1=O` [Example 20, 7-{[5-(3,4-dichlorophenyl)-1,3,4-oxadiazol-2-yl]methyl}-8-[4-(2-hydroxyethyl)piperidin-1-yl]-1,3-dimethyl-2,3,6,7-tetrahydro-1H-purine-2,6-dione], for the setting “Table 3”, the IC50 is 30 nM.
With `Cn1c(=O)c2c(nc(NCCS(=O)(=O)O)n2Cc2nnc(-c3ccc(Cl)c(Cl)c3)o2)n(C)c1=O` [Example 82, 2-[(7-{[5-(3,4-dichlorophenyl)-1,3,4-oxadiazol-2-yl]methyl}-1,3-dimethyl-2,6-dioxo-2,3,6,7-tetrahydro-1H-purin-8-yl)amino]ethane-1-sulfonic acid], the IC50 (Table 4) amounted to 454 nM.
Still for that read-out and setting: the same measure for `Cn1c(=O)c2c(nc(Cl)n2Cc2coc(-c3ccc(Cl)c(Cl)c3)n2)n(C)c1=O` [Example 71, 8-chloro-7-{[2-(3,4-dichlorophenyl)-1,3-oxazol-4-yl]methyl}-1,3-dimethyl-2,3,6,7-tetrahydro-1H-purine-2,6-dione]: 81.6 nM; for `COc1ccc(-c2cc(Cn3c(Cl)nc4c3c(=O)n(C)c(=O)n4C)on2)cc1` [Example 77, 8-chloro-7-{[3-(4-methoxyphenyl)-1,2-oxazol-5-yl]methyl}-1,3-dimethyl-2,3,6,7-tetrahydro-1H-purine-2,6-dione]: 19700 nM.
Consider `Cn1c(=O)c2c(nc(N3CCCC3)n2Cc2nnc(-c3ccc(Cl)c(Cl)c3)o2)n(C)c1=O` [Example 28, 7-{[5-(3,4-dichlorophenyl)-1,3,4-oxadiazol-2-yl]methyl}-1,3-dimethyl-8-(pyrrolidin-1-yl)-2,3,6,7-tetrahydro-1H-purine-2,6-dione], for which, for the setting “Table 3”, the half-maximal inhibitory concentration (IC50) amounted to 37 nM.
On the same count and under the same terms, the same measure for `Cn1c(=O)c2c(nc(N3CCC(N)C3)n2Cc2nnc(-c3ccc(Cl)c(Cl)c3)o2)n(C)c1=O` (stereo not shown) [Example 25, 8-(3-aminopyrrolidin-1-yl)-7-{[5-(3,4-dichlorophenyl)-1,3,4-oxadiazol-2-yl]methyl}-1,3-dimethyl-2,3,6,7-tetrahydro-1H-purine-2,6-dione]: 30 nM.
